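Briefly, cells in 96-well plates were exposed to five compound concentrations for 48 h, and endpoints were estimated by linear interpolation. Definition used: TGI = concentration required for complete inhibition of growth.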
What was measured:
Experiment in all cases: NCI tumour cell line growth inhibition, 48 h
[1] = tested on: BT-549 breast
[2] = tested on: UACC-257 melanoma
[3] = tested on: HCC-2998 colon
[4] = tested on: DU-145 prostate
[5] = tested on: MCF7 breast
[6] = tested on: OVCAR-3 ovarian
[7] = tested on: MDA-N
[8] = tested on: SK-MEL-2 melanoma
[9] = tested on: HCT-116 colon
[10] = tested on: M14 melanoma
[11] = tested on: LOX IMVI melanoma

Row | SMILES | TGI [1] [µM] | TGI [2] [µM] | TGI [3] [µM] | TGI [4] [µM] | TGI [5] [µM] | TGI [6] [µM] | TGI [7] [µM] | TGI [8] [µM] | TGI [9] [µM] | TGI [10] [µM] | TGI [11] [µM]
1 | COc1ccccc1C1C2=C(COC2=O)Oc2cc3c(cc21)OCO3 (stereo not drawn) | > 100 | > 100 | > 37.6 | > 42.4 | > 89.9 | 16.7 | 0.763 | 99.7 | > 100 | > 33.4 | > 100
2 | c1ccc(-c2csc3c2-n2cccc2C3N2CCCC2)cc1 (stereo not drawn) | 34.4 | 39.9 | > 100 | > 100 | > 100 | > 100 | > 100 | > 100 | > 100 | – | > 100
3 | O=c1oc2ccc([N+](=O)[O-])cc2nc1/C=C(\O)c1ccccc1 | > 100 | > 100 | > 100 | > 100 | > 100 | > 100 | > 100 | 98.2 | > 100 | > 100 | > 100
4 | COc1ccccc1N1CCN(CCCCNC(=O)c2ccc([N+](=O)[O-])o2)CC1 | 14.7 | 13.2 | 5.71 | 16.4 | 22.2 | 17.8 | 13.6 | 19.4 | 24.6 | 14.6 | 16.3
5 | Cc1cccc2c(N)c3cccc(C(=O)NCC[N+](C)(C)Cc4ccc([N+](=O)[O-])n4C)c3nc12 | > 71.3 | > 80.9 | 55.8 | > 75.3 | > 62.5 | > 73.1 | > 81.2 | > 100 | 68.3 | > 69.6 | > 64.9
6 | Cc1ccc(C2(O)c3ccccc3C(=O)N(C)C2(O)c2ccc(C)cc2)cc1 (stereo not drawn) | > 100 | > 100 | > 100 | > 100 | > 100 | > 100 | > 100 | > 100 | > 100 | > 100 | > 100
7 | O=C(N/N=C(/COc1ccccc1)N=Cc1ccncc1)c1ccncc1 | > 100 | > 100 | > 100 | > 100 | > 100 | > 100 | > 100 | > 100 | > 100 | > 100 | > 100
8 | COc1c(C)c(C/C=C(\C)CC/C=C(\C)CC/C=C(\C)CCC=C(C)C)c(OC)c(OC)c1OC | > 100 | > 100 | > 100 | > 100 | > 100 | > 100 | > 100 | > 100 | > 100 | > 100 | > 100
9 | O=[N+]([O-])c1cc(C2(N3CCCCC3)CCCCC2)sc1Br | 24.3 | 4.51 | 3.41 | 10.2 | 8.6 | 7.4 | 23.3 | 21.4 | 35.5 | 21.9 | 15.1
10 | Cc1ccc(Nc2c3c(c(C#N)c4nc5ccccc5n24)CCCC3)cc1 | > 100 | 55 | 94.9 | > 100 | > 100 | 34.6 | > 100 | 31.7 | 36.8 | 74.4 | > 100
11 | O=C(O)c1cc(N=Nc2ccc([N+](=O)[O-])cc2)ccc1O | > 100 | 74.7 | 44.7 | > 100 | 87.1 | 39.8 | > 100 | 78.8 | > 100 | > 100 | > 100
12 | CC(C)C[S+]1C2=C([O-])CC(C)(C)CC2=Nc2ccccc21 (stereo not drawn) | > 100 | > 100 | > 100 | > 100 | > 100 | > 100 | > 100 | > 100 | > 100 | > 100 | > 100
13 | CC(=O)N1C(C(=O)NN2CCOCC2)CSC1c1ccccc1 (stereo not drawn) | > 100 | > 100 | > 100 | > 100 | > 100 | > 100 | > 100 | > 100 | > 100 | > 100 | > 100
14 | c1ccc(-c2cnc(SC(c3ccccc3)c3ccccc3)[nH]2)cc1 | > 100 | 55.5 | 35.8 | > 100 | 74.7 | > 100 | 69.6 | 53.2 | > 100 | > 100 | 59
